Literature values as cited in article PMC7098970, “Neurosteroids as Selective Inhibitors of Glycine Receptor Activity: Structure-Activity Relationship Study on Endogenous Androstanes and Androstenes” (Frontiers in Molecular Neuroscience, 2020).
Structures can show the parent of a compound that is named as a salt.

Key:
GABAAR = tested on: GABAAR; set-up: method as in Park-Chung et al., 1999; settings: ref Park-Chung et al., 1999; cited from earlier work
recombinant GlyRs = tested on: recombinant GlyRs; set-up: method as in Maksay et al. (2001); settings: expressed in frog oocytes; ref Maksay et al. (2001); read-out: IC50 for inhibition of recombinant GlyRs; cited from earlier work

| Compound | Efficacy of potentiation of IGABA (GABAAR) | IC50 (recombinant GlyRs) |
| --- | --- | --- |
| CC(=O)[C@H]1CC[C@H]2[C@@H]3CC[C@H]4C[C@H](O)CC[C@]4(C)[C@H]3CC[C@]12C [3α-hydroxy-5α-pregnane-20-one] | 1373% |  |
| CC(O)C1CCC2C3CCC4CC(O)CCC4(C)C3CCC12C (stereo not drawn) [20α-hydroxy analog] | 166% |  |
| C[C@]12CC[C@H](OS(=O)(=O)O)CC1=CCC1C2CC[C@]2(C)C(=O)CCC12 (stereo partly drawn) [DHEA sulfate] |  | 2.5 to 6.3 µM |
